Tested on: human ankle cartilage explants treated with IL-1β
Assay: IL-1β cytokine challenge model, sGAG biosynthesis rate in human ankle cartilage explants
Format: cell-based
Conditions: for rescue of the biosynthesis loss caused by human IL-1β: days 6-8
Protocol: Cartilage was harvested from the ankles of a donor (Collins Grade 1) and a donor (Collins Grade 1). Cartilage explants were equilibrated in culture media for 2 days after harvest. […] These were cut down to 1 mm thickness and allowed to equilibrate for a further 2 days before experiments were set up. Human IL-1β was used to induce osteoarthritis-like changes in cartilage. Experiments were set up to identify IL-1β doses at which 40 nM of free IGF-1 can rescue the IL-1β induced biosynthesis loss in cartilage. A dose response experiment in which single doses of (+9GFP)-(GGGGS)4-(IGF-1) (SEQ ID NO: 7) and (+9GFP)-(EAAAK)3-(IGF-1) (SEQ ID NO: 8) were added along with 100 pg/ml human IL-1β was also set up.
Experimental groups (N=8 to 10 cartilage explants in each group): Untreated control (Ctrl in FIG. 6A and FIG. 6B), 10 pg/mL human IL-1β (10 pg/ml IL-1b in FIG. 6A and FIG. 6B), 10 pg/mL human IL-1β+40 nM IGF-1 (10 pg/ml IL-1b+40 nM IGF-1 in FIG. 6A and FIG. 6B), 100 pg/mL human IL-1β (100 pg/ml IL-1b in FIG. 6A and FIG. 6B), 100 pg/mL human IL-1β+40 nM IGF-1 (100 pg/ml IL-1b+40 nM IGF-1 in FIG. 6A and FIG. 6B), 500 pg/mL human IL-1β (500 pg/ml IL-1b in FIG. 6A and […]), 500 pg/mL human IL-1β+40 nM IGF-1 (500 pg/ml IL-1b+40 nM IGF-1 in FIG. 6A and FIG. 6B), 1000 pg/mL human IL-1β (1 ng/ml IL-1b in FIG. 6A and FIG. 6B), 1000 pg/mL human IL-1β+40 nM IGF-1 (1 ng/ml IL-1b+40 nM IGF-1 in FIG. 6A and FIG. 6B). Media changes were performed every 2 days and the experiment was terminated after 8 days.
Chondrocyte biosynthesis rate (primarily aggrecan synthesis) was measured between days 6 and 8 of the experiment using a 35S-sulfate radiolabel. Statistics: 1-way ANOVA with post-hoc Tukey's HSD test.
This experiment was set up with cartilage explants from the donor ankle. Experimental groups (N=8 to 10 cartilage explants in each group): Untreated control (Ctrl in FIG. 6C), Continuous human IL-1β control (100 pg/ml dose added with every media change) (IL-1b in FIG. 6C), Continuous human IL-1β+continuous free IGF-1 control (100 pg/ml human IL-1β and 40 nM free IGF-1 dose added with every media change) (IL-1b+IGF1 FIG. 6C), Continuous human IL-1β+(+9GFP)-(GGGGS)4-(IGF-1) (SEQ ID NO: 7) 500 nM single dose (100 pg/ml human IL-1β added with every media change; Single 500 nM fusion protein dose added on Day 0) (IL-1b+0.5 μM Flex-1 in FIG. 6C), Continuous human IL-1β+(+9GFP)-(GGGGS)4-(IGF-1) (SEQ ID NO: 7) 1 μM single dose (100 pg/ml human IL-1β added with every media change; Single 1 μM fusion protein dose added on Day 0) (IL-1b+1 μM Flex-1 in FIG. 6C), Continuous human IL-1β+(+9GFP)-(EAAAK)3-(IGF-1) (SEQ ID NO: 8) 500 nM single dose (100 pg/ml human IL-1β added with every media change; Single 500 nM fusion protein dose added on Day 0), Continuous human IL-1β+(+9GFP)-(EAAAK)3-(IGF-1) (SEQ ID NO: 8) 1 μM single dose (100 pg/ml human IL-1β added with every media change; Single 1 μM fusion protein dose added on Day 0) (IL-1b+1 μM Rig-1 in FIG. 6C).
Preliminary dose response experiments were performed to test the effects of human IL-1β (PeproTech, Rocky Hill, NJ) on human ankle cartilage. Ankle cartilage explants from two different donors (equilibrated in culture medium post-harvest) were cultured in serum-free low glucose medium (same composition as equilibration medium) and treated with continuous IL-1β doses ranging from 10 pg/ml to 1 ng/ml for 8 days. The experiments also included groups of explants that were treated with 300 ng/ml free IGF-1 at each dose level of IL-1β. Based on the results of these experiments, 100 pg/ml IL-1β was chosen as the dose used for the fusion protein dose response experiments. In these experiments, ankle and knee cartilage explants (equilibrated in culture medium post-harvest) were treated continuously with IL-1β and received single doses of fusion proteins (ranging from 39.2 nM to 2 μM) at the start of the experiments. […]

[1] = single 2 μM dose, 100 pg/ml IL-1β, 10-day experiment (FIG. 15B)

Substance	rescue of the biosynthesis loss caused by human IL-1β (both dose levels (single 500 nM and 1 μM), 100 pg/ml human IL-1β, donor)	rescue of the loss of biosynthesis caused by IL-1β (single 1 μM dose, 100 pg/ml IL-1β, 7-day experiment (FIG. 15A))	rescue of the loss of biosynthesis caused by IL-1β [1]	rescue of the loss of biosynthesis caused by IL-1β (single 1 μM dose, 100 pg/ml IL-1β, 10-day experiment (FIG. 15B))	rescue of the loss of biosynthesis caused by IL-1β (single 2 μM dose, 100 pg/ml IL-1β, 7-day experiment (FIG. 15A))	rescue of the biosynthesis loss caused by human IL-1β (40 nM free IGF-1, 100 pg/ml human IL-1β)	rescue of the biosynthesis loss caused by human IL-1β (40 nM free IGF-1, 500 pg/ml and 1000 pg/ml human IL-1β)	biosynthesis rate versus untreated control (300 ng/ml IGF-1 + 10 pg/ml human IL-1β, both donors)	biosynthesis rate versus untreated control (300 ng/ml IGF-1 + 100 pg/ml human IL-1β, both donors)	biosynthesis rate versus untreated control (300 ng/ml IGF-1 + 500 pg/ml or 1 ng/ml human IL-1β, donor)	rescue of biosynthesis loss (continuous free IGF-1 300 ng/ml, 100 pg/ml IL-1β, 7-day and 10-day experiments)	rescue of biosynthesis loss (continuous free IGF-1, human IL-1β 1 ng/ml)
(+9GFP)-(EAAAK)3-(IGF-1): fusion protein of +9 GFP and human IGF-1 with rigid (EAAAK)3 linker, SEQ ID NO: 8	able to rescue	partial rescue	partially rescued									
(+9GFP)-(GGGGS)4-(IGF-1): fusion protein of +9 GFP and human IGF-1 with flexible (GGGGS)4 linker, SEQ ID NO: 7			partially rescued	partially rescued	completely rescue							
IGF-1: free recombinant human IGF-1 (PeproTech), pro-anabolic growth factor used as the positive control						completely rescue	partial rescue	surpassed the untreated control biosynthesis	not statistically significantly different from the untreated control	significantly lower biosynthesis compared to the untreated control	complete rescue	could not rescue
